Values quoted from earlier work as cited in patent US6907319B2, “System for the application of pesticides” (Syngenta Crop Protection, Inc., priority 2000, dated 2005).

How the values were obtained:
[1] = increasing the soil temperature
potato = conditions: cool temperatures (13° C. day/4° C. night) compared with 24° C./13° C.

Structure (SMILES)	reduction of the maximum phytotoxicity threshold [1] [fold]	also measured
CCNc1nc(Cl)nc(NC(C)C)n1 [atrazine]	3	
O=C(O)CNCP(=O)(O)O [glyphosate]		phytotoxicity of glyphosate/ha, less than at 24° C./13° C. (potato): 50%
Nc1c(Cl)c(Cl)nc(C(=O)O)c1Cl [picloram]	1.5	
Cc1[nH]c(=O)n(C(C)(C)C)c(=O)c1Cl [terbacil]	2.5	
COC(=O)c1sccc1S(=O)(=O)NC(=O)Nc1nc(C)nc(OC)n1 [thiameturon-methyl]		activity with increasing rain (increasing of rain): reduces the activity; performance with increasing temperature and humidity (increasing temperature and humidity): markedly improved
